Test results as given in the NIST ThermoML archive (doi:10.1016/j.jct.2017.07.024).
Numbers after ± are expanded uncertainties.

How the values were obtained:
[1] = refractive index (Na D-line) (dimensionless); wn = mass fraction of the nth substance listed; settings: 100 kPa, Liquid, Standard Abbe refractometry
[2] = wn = mass fraction of the nth substance listed; settings: for surface tension liquid-gas: Maximal bubble pressure; for mass density: 100 kPa, Liquid, Vibrating tube method

CCCCCCn1cc[n+](C)c1.C[C@@H](O)[C@H](N)C(=O)[O-] [1-hexyl-3-methylimidazolium DL-threoninate] + O
Settings | mass density, [2] [kg/m3] | refractive index, [1] | surface tension liquid-gas, [2] [mN/m]
288.15 K, w2 = 0.006 | 1089.58 ± 0.68 | 1.5042 ± 0.0013 | 37.4 ± 0.5
288.15 K, w2 = 0.0091 | 1089.35 ± 0.68 | 1.5038 ± 0.0013 | 37.6 ± 0.5
288.15 K, w2 = 0.012 | 1089.16 ± 0.68 | 1.5034 ± 0.0013 | 37.8 ± 0.5
288.15 K, w2 = 0.0149 | 1088.99 ± 0.68 | 1.5031 ± 0.0013 | 38 ± 0.5
288.15 K, w2 = 0.0172 | 1088.81 ± 0.68 | 1.5028 ± 0.0013 | 38.2 ± 0.5
293.15 K, w2 = 0.006 | 1086.27 ± 0.68 | 1.5026 ± 0.0013 | 37 ± 0.5
293.15 K, w2 = 0.0091 | 1086.04 ± 0.68 | 1.5023 ± 0.0013 | 37.2 ± 0.5
293.15 K, w2 = 0.012 | 1085.85 ± 0.68 | 1.502 ± 0.0013 | 37.4 ± 0.5
293.15 K, w2 = 0.0149 | 1085.68 ± 0.68 | 1.5017 ± 0.0013 | 37.6 ± 0.5
293.15 K, w2 = 0.0172 | 1085.5 ± 0.68 | 1.5014 ± 0.0013 | 37.8 ± 0.5
298.15 K, w2 = 0.006 | 1082.96 ± 0.68 | 1.5012 ± 0.0013 | 36.7 ± 0.5
298.15 K, w2 = 0.0091 | 1082.73 ± 0.68 | 1.5009 ± 0.0013 | 36.9 ± 0.5
298.15 K, w2 = 0.012 | 1082.54 ± 0.68 | 1.5006 ± 0.0013 | 37.1 ± 0.5
298.15 K, w2 = 0.0149 | 1082.37 ± 0.68 | 1.5003 ± 0.0013 | 37.3 ± 0.5
298.15 K, w2 = 0.0172 | 1082.19 ± 0.67 | 1.5 ± 0.0013 | 37.5 ± 0.5
303.15 K, w2 = 0.006 | 1079.61 ± 0.68 | 1.4994 ± 0.0013 | 36.4 ± 0.5
303.15 K, w2 = 0.0091 | 1079.38 ± 0.68 | 1.4991 ± 0.0013 | 36.7 ± 0.5
303.15 K, w2 = 0.012 | 1079.19 ± 0.67 | 1.4988 ± 0.0013 | 36.9 ± 0.5
303.15 K, w2 = 0.0149 | 1079.01 ± 0.67 | 1.4985 ± 0.0013 | 37.1 ± 0.5
303.15 K, w2 = 0.0172 | 1078.82 ± 0.67 | 1.4982 ± 0.0012 | 37.3 ± 0.5
308.15 K, w2 = 0.006 | 1076.29 ± 0.67 | 1.4981 ± 0.0013 | 36.1 ± 0.5
308.15 K, w2 = 0.0091 | 1076.06 ± 0.67 | 1.4978 ± 0.0013 | 36.4 ± 0.5
308.15 K, w2 = 0.012 | 1075.86 ± 0.67 | 1.4974 ± 0.0013 | 36.6 ± 0.5
308.15 K, w2 = 0.0149 | 1075.69 ± 0.67 | 1.4971 ± 0.0013 | 36.8 ± 0.5
308.15 K, w2 = 0.0172 | 1075.49 ± 0.67 | 1.4968 ± 0.0013 | 37 ± 0.5
313.15 K, w2 = 0.006 | 1073 ± 0.67 | 1.4964 ± 0.0013 | 35.8 ± 0.5
313.15 K, w2 = 0.0091 | 1072.76 ± 0.67 | 1.4961 ± 0.0013 | 36.1 ± 0.5
313.15 K, w2 = 0.012 | 1072.56 ± 0.67 | 1.4958 ± 0.0013 | 36.3 ± 0.5
313.15 K, w2 = 0.0149 | 1072.38 ± 0.67 | 1.4955 ± 0.0013 | 36.5 ± 0.5
313.15 K, w2 = 0.0172 | 1072.18 ± 0.67 | 1.4952 ± 0.0012 | 36.7 ± 0.5
318.15 K, w2 = 0.006 | 1069.54 ± 0.67 | 1.495 ± 0.0013 | 35.5 ± 0.5
318.15 K, w2 = 0.0091 | 1069.29 ± 0.67 | 1.4947 ± 0.0013 | 35.8 ± 0.5
318.15 K, w2 = 0.012 | 1069.09 ± 0.67 | 1.4944 ± 0.0013 | 36 ± 0.5
318.15 K, w2 = 0.0149 | 1068.91 ± 0.67 | 1.4941 ± 0.0013 | 36.3 ± 0.5
318.15 K, w2 = 0.0172 | 1068.71 ± 0.67 | 1.4938 ± 0.0013 | 36.5 ± 0.5
323.15 K, w2 = 0.006 | 1066.37 ± 0.67 | 1.4933 ± 0.0013 | 35.2 ± 0.5
323.15 K, w2 = 0.0091 | 1066.12 ± 0.67 | 1.4929 ± 0.0013 | 35.5 ± 0.5
323.15 K, w2 = 0.012 | 1065.91 ± 0.67 | 1.4926 ± 0.0013 | 35.7 ± 0.5
323.15 K, w2 = 0.0149 | 1065.72 ± 0.67 | 1.4922 ± 0.0013 | 36 ± 0.5
323.15 K, w2 = 0.0172 | 1065.51 ± 0.67 | 1.4919 ± 0.0012 | 36.2 ± 0.5
328.15 K, w2 = 0.006 | 1063.07 ± 0.67 | 1.4918 ± 0.0013 | 34.9 ± 0.5
328.15 K, w2 = 0.0091 | 1062.82 ± 0.67 | 1.4914 ± 0.0013 | 35.2 ± 0.5
328.15 K, w2 = 0.012 | 1062.61 ± 0.67 | 1.4911 ± 0.0013 | 35.4 ± 0.5
328.15 K, w2 = 0.0149 | 1062.42 ± 0.67 | 1.4907 ± 0.0013 | 35.7 ± 0.5
328.15 K, w2 = 0.0172 | 1062.21 ± 0.67 | 1.4904 ± 0.0013 | 35.9 ± 0.5

CCCCCn1cc[n+](C)c1.C[C@@H](O)[C@H](N)C(=O)[O-] [1-pentyl-3-methylimidazolium DL-threoninate] + O
Settings | mass density, [2] [kg/m3] | refractive index, [1] | surface tension liquid-gas, [2] [mN/m]
288.15 K, w2 = 0.0066 | 1107.18 ± 0.68 | 1.5071 ± 0.0013 | 38.8 ± 0.5
288.15 K, w2 = 0.0097 | 1106.95 ± 0.68 | 1.5067 ± 0.0013 | 39 ± 0.5
288.15 K, w2 = 0.0119 | 1106.76 ± 0.68 | 1.5064 ± 0.0013 | 39.2 ± 0.5
288.15 K, w2 = 0.0141 | 1106.59 ± 0.68 | 1.5061 ± 0.0013 | 39.4 ± 0.5
288.15 K, w2 = 0.0165 | 1106.41 ± 0.68 | 1.5058 ± 0.0013 | 39.6 ± 0.5
293.15 K, w2 = 0.0066 | 1103.87 ± 0.68 | 1.5056 ± 0.0013 | 38.4 ± 0.5
293.15 K, w2 = 0.0097 | 1103.64 ± 0.68 | 1.5053 ± 0.0013 | 38.6 ± 0.5
293.15 K, w2 = 0.0119 | 1103.45 ± 0.68 | 1.505 ± 0.0013 | 38.8 ± 0.5
293.15 K, w2 = 0.0141 | 1103.28 ± 0.68 | 1.5047 ± 0.0013 | 39 ± 0.5
293.15 K, w2 = 0.0165 | 1103.1 ± 0.68 | 1.5044 ± 0.0013 | 39.2 ± 0.5
298.15 K, w2 = 0.0066 | 1100.56 ± 0.68 | 1.504 ± 0.0013 | 38.2 ± 0.5
298.15 K, w2 = 0.0097 | 1100.33 ± 0.68 | 1.5037 ± 0.0013 | 38.4 ± 0.5
298.15 K, w2 = 0.0119 | 1100.14 ± 0.68 | 1.5034 ± 0.0013 | 38.6 ± 0.5
298.15 K, w2 = 0.0141 | 1099.97 ± 0.68 | 1.5032 ± 0.0013 | 38.8 ± 0.5
298.15 K, w2 = 0.0165 | 1099.79 ± 0.68 | 1.5028 ± 0.0013 | 39 ± 0.5
303.15 K, w2 = 0.0066 | 1097.21 ± 0.68 | 1.5024 ± 0.0013 | 37.8 ± 0.5
303.15 K, w2 = 0.0097 | 1096.98 ± 0.68 | 1.5021 ± 0.0013 | 38.1 ± 0.5
303.15 K, w2 = 0.0119 | 1096.79 ± 0.68 | 1.5017 ± 0.0013 | 38.3 ± 0.5
303.15 K, w2 = 0.0141 | 1096.61 ± 0.68 | 1.5015 ± 0.0013 | 38.5 ± 0.5
303.15 K, w2 = 0.0165 | 1096.42 ± 0.68 | 1.5012 ± 0.0013 | 38.7 ± 0.5
308.15 K, w2 = 0.0066 | 1093.89 ± 0.68 | 1.5009 ± 0.0013 | 37.5 ± 0.5
308.15 K, w2 = 0.0097 | 1093.66 ± 0.68 | 1.5006 ± 0.0013 | 37.8 ± 0.5
308.15 K, w2 = 0.0119 | 1093.46 ± 0.68 | 1.5003 ± 0.0013 | 38 ± 0.5
308.15 K, w2 = 0.0141 | 1093.29 ± 0.68 | 1.5 ± 0.0013 | 38.2 ± 0.5
308.15 K, w2 = 0.0165 | 1093.09 ± 0.68 | 1.4997 ± 0.0013 | 38.4 ± 0.5
313.15 K, w2 = 0.0066 | 1090.6 ± 0.68 | 1.4992 ± 0.0013 | 37.2 ± 0.5
313.15 K, w2 = 0.0097 | 1090.36 ± 0.68 | 1.4988 ± 0.0013 | 37.5 ± 0.5
313.15 K, w2 = 0.0119 | 1090.16 ± 0.68 | 1.4984 ± 0.0013 | 37.7 ± 0.5
313.15 K, w2 = 0.0141 | 1089.98 ± 0.68 | 1.4982 ± 0.0013 | 37.9 ± 0.5
313.15 K, w2 = 0.0165 | 1089.78 ± 0.68 | 1.4978 ± 0.0013 | 38.1 ± 0.5
318.15 K, w2 = 0.0066 | 1087.14 ± 0.68 | 1.4977 ± 0.0013 | 36.9 ± 0.5
318.15 K, w2 = 0.0097 | 1086.89 ± 0.68 | 1.4974 ± 0.0013 | 37.2 ± 0.5
318.15 K, w2 = 0.0119 | 1086.69 ± 0.68 | 1.497 ± 0.0013 | 37.4 ± 0.5
318.15 K, w2 = 0.0141 | 1086.51 ± 0.68 | 1.4967 ± 0.0013 | 37.6 ± 0.5
318.15 K, w2 = 0.0165 | 1086.31 ± 0.68 | 1.4963 ± 0.0013 | 37.9 ± 0.5
323.15 K, w2 = 0.0066 | 1083.97 ± 0.68 | 1.4961 ± 0.0013 | 36.6 ± 0.5
323.15 K, w2 = 0.0097 | 1083.72 ± 0.68 | 1.4957 ± 0.0013 | 36.9 ± 0.5
323.15 K, w2 = 0.0119 | 1083.51 ± 0.68 | 1.4954 ± 0.0013 | 37.1 ± 0.5
323.15 K, w2 = 0.0141 | 1083.32 ± 0.68 | 1.4951 ± 0.0013 | 37.3 ± 0.5
323.15 K, w2 = 0.0165 | 1083.11 ± 0.68 | 1.4947 ± 0.0013 | 37.6 ± 0.5
328.15 K, w2 = 0.0066 | 1080.67 ± 0.68 | 1.4945 ± 0.0013 | 36.3 ± 0.5
328.15 K, w2 = 0.0097 | 1080.42 ± 0.68 | 1.4941 ± 0.0013 | 36.6 ± 0.5
328.15 K, w2 = 0.0119 | 1080.21 ± 0.68 | 1.4937 ± 0.0013 | 36.8 ± 0.5
328.15 K, w2 = 0.0141 | 1080.02 ± 0.67 | 1.4934 ± 0.0013 | 37 ± 0.5
328.15 K, w2 = 0.0165 | 1079.81 ± 0.67 | 1.4931 ± 0.0013 | 37.3 ± 0.5
